Assay results: article PMC11956012, “Optimization of Cyclophilin B-Targeted Tri-vector Inhibitors for Novel MASH Treatments” (Journal of Medicinal Chemistry, 2025)
Converted amounts (≈) assume the structure as drawn. Where two headings read alike, the source gives them in different places.

How the values were obtained:
Cyp A [1] = molecular target: T1, Cyp A (Homo sapiens, UniProt P62937)
Method: (§1) The cyclophilin binding properties of the compounds were assessed by Surface Plasmon Resonance (SPR) against Cyp A, B and D isoforms (Table 1, representative sensorgrams are shown in Figure 3A).[35]
Surface Plasmon Resonance (SPR)
(§2) SPR measurements were performed on a Biacore T200 instrument (Cytiva). Ni2+ -
(§3) nitrilotriacetic acid (NTA) sensor chips, 1-ethyl-3-(3-diaminopropyl) carbodiimide
(§4) hydrochloride (EDC) and N hydroxy succinimide (NHS) were purchased from Cytiva.
(§5) Immobilization and covalent stabilization of His-Cyps Pure His-cyclophilins on the NTA
(§6) sensor chip was performed essentially as described. [Wear et al., 2017, FEBS OpenBio], using
(§7) 200 nM concentrations of each protein, in Running Buffer (PBS, pH7.4; 0.05 % surfactant P20,
(§8) 2% v/v ethanol; 50 µM EDTA), at 30 µl min-1 with 60 second contact times on the activated
(§9) NTA surfaces. This gave signals of 1,921 RU for His-CypA, 1932 RU for His-CypB and 1,397
(§10) RU for His-CypD. Specific surface protein activity was assayed by passing saturating amounts
(§11) activity were obtained for His-CypA, -B and –D, respectively.
Kinetic titration experiments
(§12) Single cycle kinetic titration binding experiments were performed in triplicate at 25 °C. 3-fold
(§13) injected over the sensor surface, at 100 µl min-1 with a 90 s contact time and a 90 s dissociation
(§14) time. The sensor surface was regenerated between experiments by dissociating any formed
(§15) complex in running buffer for at least 1,200 seconds. The apparent on-rate (k+) and off-rate (k-
(§16) ) constants and the equilibrium dissociation constant (Kd) were calculated from reference

[2] = system: permeabilised human hepatocyte (HepG2) cells; experiment: Calcium Retention Capacity assay; format: cell-based; settings: for EC50: Homo sapiens
Method: Calcium Retention Capacity Assay
The compounds were prepared as a 10 mM stock solution in 100% DMSO. Subsequent dilutions were made in 100% DMSO and then in assay buffer to 10-fold the final concentration.
HepG2 cells were permeabilized with 100 µM digitonin for 10 min in ice cold buffer containing 1mM EGTA. Following two wash steps to remove the digitonin, the cells were plated into 96 well black and clear plates at 106 cell per well in a 180 µL assay buffer containing 0.5 µM Calcium Green 5N. Compounds dilution were prepared in DMSO to 1000 fold the final concentration, diluted 1:100 in assay buffer and added to the assay as 20 µL per well. The assay buffer contained 5 mM glutamate and 2.5 mM malate. The cell plate was immediately run on the FLIPR Tetratm which added 5 µL of 200 µM (5 µM) calcium chloride every 5 minutes whilst reading the plate every 3 seconds. The area under the curve (AUC) of the raw trace was calculated at each concentration. AUC values were plotted against concentration and EC50 values calculated. Experiments were repeated three times and the EC50 value was determined from a curve fitted to the averaged replicates.

Cyp D [3] = molecular target: T2, Cyp D (Homo sapiens, UniProt P30405)
Method: as §1
Surface Plasmon Resonance (SPR)
as §2, §3, §4, §5, §6, §7, §8, §9, §10, §11
Kinetic titration experiments
as §12, §13, §14, §15, §16

Cyp B [4] = molecular target: T3, Cyp B (Homo sapiens, UniProt P23284); experiment: biochemical
Method: as §1
Surface Plasmon Resonance (SPR)
as §2, §3, §4, §5, §6, §7, §8, §9, §10, §11
Kinetic titration experiments
as §12, §13, §14, §15, §16

[5] = Intrinsic clearance, rat liver microsomes; format: in vitro ADME; settings: for microsomal CLint: Table 3, read-out: Rat Liver microsomes CL
[6] = Intrinsic clearance, human liver microsomes; format: in vitro ADME; settings: for microsomal CLint: Table 3, read-out: Human Liver microsomes CL
Cyp A [7] = molecular target: T1, Cyp A; experiment: SPR kinetic titration, Cyp A
Method: as §1
Surface Plasmon Resonance (SPR)
as §2, §3, §4, §5, §6, §7, §8, §9, §10, §11
Kinetic titration experiments
as §12, §13, §14, §15, §16

physchem [8] = experiment: physchem
Method: (§17) These experiments were subcontracted to Eurofins.
(§18) Kinetic solubility measurements were carried out using a shake-flask technique. Compounds
(§19) were incubated for 24 hours at room temperature. Aqueous solubility (μM) was determined by
(§20) comparing the peak area of the principal peak in a calibration standard (200 μM) containing
(§21) organic solvent (methanol/water, 60/40, v/v) with the peak area of the corresponding peak in a
(§22) buffer sample. In addition, chromatographic purity (%) was defined as the peak area of the
(§23) principal peak relative to the total integrated peak area in the HPLC chromatogram of the
(§24) calibration standard. A chromatogram of the calibration standard of each test compound, along
(§25) with a UV/VIS spectrum with labeled absorbance maxima, was generated.
(§26) These were measured using a shake-flask technique. Compounds were incubated for 60 min at
(§27) room temperature. The total amount of compound was determined as the peak area of the
(§28) principal peak in a calibration standard (100 μM) containing organic solvent (methanol/water,
(§29) 60/40, v/v). The amount of compound in buffer was determined as the combined, volume
(§30) corrected, and weighted areas of the corresponding peaks in the aqueous phases of three
(§31) organic-aqueous samples of different composition. An automated weighting system was used
(§32) to ensure the preferred use of raw data from those samples with well quantifiable peak signals.
(§33) The amount of compound in organic was calculated by subtraction. Subsequently, Log D was
(§34) calculated as the Log10 of the amount of compound in the organic phase divided by the amount
of compound in the aqueous phase.

physchem [9] = experiment: physchem; remark: listed apart in the source
Method: as §17, §18, §19, §20, §21, §22, §23, §24, §25, §26, §27, §28, §29, §30, §31, §32, §33, §34
of compound in the aqueous phase.

[10] = Intrinsic clearance, rat hepatocytes; format: in vitro ADME; settings: for hepatocyte CLint: Table 3, read-out: Rat Hepatocytes CL
[11] = Intrinsic clearance, human hepatocytes; format: in vitro ADME; settings: for hepatocyte CLint: Table 3, read-out: Human Hepatocytes CL
Cyp D [12] = molecular target: T2, Cyp D; experiment: SPR kinetic titration, Cyp D
Method: as §1
Surface Plasmon Resonance (SPR)
as §2, §3, §4, §5, §6, §7, §8, §9, §10, §11
Kinetic titration experiments
as §12, §13, §14, §15, §16

Cyp B [13] = molecular target: T3, Cyp B; settings: from SPR Kd
Method: as §1
Surface Plasmon Resonance (SPR)
as §2, §3, §4, §5, §6, §7, §8, §9, §10, §11
Kinetic titration experiments
as §12, §13, §14, §15, §16

in vitro = settings: human, Caco-2
[14] = system: Salmonella typhimurium TA100; experiment: Ames fluctuation test TA100; settings: for Ames fluctuation test TA100 +S9: with rat liver S9; for Ames fluctuation test TA100 –S9: without S9
Method: (§35) Bacterial cytotoxicity tests were carried out using Reverted Salmonella typhimurium strains
(§36) (TA98, TA100, TA1535, TA1537) that were incubated 96 hours at 37 Celsius. The results for
(§37) cytotoxicity are expressed as percent of control growth (OD650). Compounds with growth of
(§38) less than 60 % of control are flagged and considered cytotoxic.
(§39) Compounds were incubated for 96 hours at 37°C at 4 different concentrations (5 mM, 10 mM,
(§40) the absence and presence of rat liver S9 microsomes.
(§41) to the reversion of the histidine mutation (as judged by the ratio of OD430/OD570 being greater
(§42) than 1.0) are counted and recorded as positive counts. The significance of the positive counts
(§43) between the treatment (in the presence of test compound) and the control (in the absence of test
(§44) compound) are calculated using the one-tailed Fisher's exact test. Three significance levels are
(§45) Very strong positive, if p < 0.001, denoted as "+++"
(§46) Control experiments were carried out with 2-aminoanthracene (10 mM), 9-aminoacridine (10
(§47) mM), quercetin (30 mM) and streptozocitin (2.5 mM).

[15] = Aqueous kinetic solubility, shake-flask
Method: as §17, §18, §19, §20, §21, §22, §23, §24, §25, §26, §27, §28, §29, §30, §31, §32, §33, §34
of compound in the aqueous phase.

[16] = system: Salmonella typhimurium TA1535; experiment: Ames fluctuation test TA1535; settings: for Ames fluctuation test TA1535 +S9: with rat liver S9; for Ames fluctuation test TA1535 –S9: without S9
Method: as §35, §36, §37, §38, §39, §40, §41, §42, §43, §44, §45, §46, §47

[17] = Partition coefficient (Log D), shake-flask; settings: octanol/water
Method: as §17, §18, §19, §20, §21, §22, §23, §24, §25, §26, §27, §28, §29, §30, §31, §32, §33, §34
of compound in the aqueous phase.

Caco-2 = Caco-2 permeability; settings: apparent permeability A-B
Caco-2 permeability = settings: human, Caco-2
[18] = system: Salmonella typhimurium TA1537; experiment: Ames fluctuation test TA1537; settings: for Ames fluctuation test TA1537 +S9: with rat liver S9; for Ames fluctuation test TA1537 –S9: without S9
Method: as §35, §36, §37, §38, §39, §40, §41, §42, §43, §44, §45, §46, §47

[19] = system: Salmonella typhimurium TA98; experiment: Ames fluctuation test TA98; settings: for Ames fluctuation test TA98 +S9: with rat liver S9; for Ames fluctuation test TA98 –S9: without S9
Method: as §35, §36, §37, §38, §39, §40, §41, §42, §43, §44, §45, §46, §47

[20] = system: Salmonella typhimurium strains (TA98, TA100, TA1535, TA1537); experiment: Ames tests, all strains (summary in words); settings: in absence and presence of liver S9 fractions
Method: as §35, §36, §37, §38, §39, §40, §41, §42, §43, §44, §45, §46, §47

iPSC-derived hepatocytes = experiment: In vitro hepatic steatosis (MASH) assay; format: cell-based; settings: 48 h treatment
[21] = design: method as in PMID 38324483; settings: phase III trial; cited from earlier work
[22] = digitonin-permeabilised HepG2 cells, read-out: EC50 CRC assay
[23] = Kd Cyp B, SPR-derived dissociation constant, 25 °C
[24] = read-out: Rat Liver microsomes t1/2
[25] = read-out: Human Liver microsomes t1/2
[26] = hepatocytes, read-out: Rat Hepatocytes t1/2
[27] = hepatocytes, read-out: Human Hepatocytes t1/2

T2 sequence (P30405 42-207): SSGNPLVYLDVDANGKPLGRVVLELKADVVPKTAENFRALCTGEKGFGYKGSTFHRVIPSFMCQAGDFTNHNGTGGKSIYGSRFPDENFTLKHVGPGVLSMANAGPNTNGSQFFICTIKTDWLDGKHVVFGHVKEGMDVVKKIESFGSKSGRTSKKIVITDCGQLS
T1 sequence (P62937 whole entry): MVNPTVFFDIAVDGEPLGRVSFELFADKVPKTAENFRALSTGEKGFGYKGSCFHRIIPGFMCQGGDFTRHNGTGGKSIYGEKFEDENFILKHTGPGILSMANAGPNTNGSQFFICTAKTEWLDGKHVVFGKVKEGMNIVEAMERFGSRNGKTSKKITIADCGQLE
T3 sequence (P23284 32-216 limits assumed): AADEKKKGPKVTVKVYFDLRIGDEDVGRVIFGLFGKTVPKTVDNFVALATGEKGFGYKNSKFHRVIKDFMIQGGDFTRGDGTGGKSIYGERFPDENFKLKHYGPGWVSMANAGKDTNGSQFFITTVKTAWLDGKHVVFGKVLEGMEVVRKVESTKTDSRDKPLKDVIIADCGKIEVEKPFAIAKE

## CSc1ccccc1[C@H]1CCCN1C(=O)CNC(=O)N(Cc1ccc(N)cc1)Cc1nnn(C)n1 [Compound 2, 1-[(4-Aminophenyl)methyl]-1-[(2-methyltetrazol-5-yl)methyl]-3-[2-oxo-2-[(2R)-2-(2-methylsulfanylphenyl)pyrrolidin-1-yl]ethyl]urea]
Cyp A [1]
  Kd: 90 ± 10 nM
[2]; [22]
  EC50: 1390 nM
Cyp D [3]
  Kd: 80 ± 10 nM
Cyp B [4]
  Kd: 12 ± 4 nM

## CSc1ccccc1[C@H]1CCCN1C(=O)CNC(=O)N(Cc1ccc2c(c1)[C@H]1C[C@@H](N2)[C@H](O)CO1)Cc1nnn(C)n1 [Compound 3, 1-[[(1S,9R,10S)-10-Hydroxy-12-oxa-8-azatricyclo[7.3.1.0,^27]trideca-2,4,6-trien-4-yl]methyl]-3-[2-[(2R)-2-(2-methylsulfanylphenyl)pyrrolidin-1-yl]-2-oxo-ethyl]-1-[(2-methyltetrazol-5-yl)methyl]urea]
[5]
  half-life: 51 min
  microsomal CLint: 137 µL/min/mg
[6]
  half-life: 41 min
  microsomal CLint: 169 µL/min/mg
Cyp A [7]
  Kd: 6 ± 2 nM
[2]; HepG2, read-out: EC50 CRC assay
  EC50: 244 nM
[2]; from EC50 values
  greater efficacy over CsA in the calcium retention assay: 2 fold
Physchem [8]
  logD: 0.66
Physchem [9]
  solubility: 54 µM (≈ 32 µg/mL)
Physchem [9]; pH 7.4
  solubility: > 200 µM
[10]; cryopreserved hepatocytes
  half-life: > 120 min
  hepatocyte CLint: < 8 µL/min/1e6 cells
[11]; cryopreserved hepatocytes
  half-life: > 120 min
  hepatocyte CLint: < 8 µL/min/1e6 cells
Cyp D [12]
  Kd: 8 ± 3 nM
Cyp B [13]
  selectivity for Cyp B over Cyp A: 3 fold
In vitro
  Papp A→B: 0.03 ×10⁻⁶ cm/s
  efflux ratio: 37
Cyp B [4]; [23]
  Kd: 2 ± 1 nM

## CSc1ccccc1[C@@H]1CCCN1C(=O)CNC(=O)N(Cc1ccc2c(c1)[C@@H]1C[C@@H](N2)[C@H](O)CO1)Cc1nnn(C)n1 [Compound 4, 1-[[(1S,9R,10S)-10-Hydroxy-12-oxa-8-azatricyclo[7.3.1.0,^27]trideca-2,4,6-trien-4-yl]methyl]-3-[2-[(2S)-2-(2-methylsulfanylphenyl)pyrrolidin-1-yl]-2-oxo-ethyl]-1-[(2-methyltetrazol-5-yl)methyl]urea]
Cyp A [1]
  Kd: 310 ± 40 nM
[2]; [22]
  EC50: 4120 nM
Cyp D [3]
  Kd: 400 ± 30 nM
Cyp B [4]; [23]
  Kd: 420 ± 80 nM

## Cn1nnc(CN(Cc2ccc(N)c(Cl)c2)C(=O)NCC(=O)N2CCC[C@@H]2c2ccccc2Br)n1 [Compound 10, 1-[(4-Amino-3-chloro-phenyl)methyl]-1-[(2-methyltetrazol-5-yl)methyl]-3-[2-oxo-2-[(2R)-2-(2-bromophenyl)pyrrolidin-1-yl]ethyl]urea]
Cyp A [1]
  Kd: 200 ± 40 nM
[5]
  microsomal CLint: 238 µL/min/mg
[5]; [24]
  half-life: 29 min
[6]
  microsomal CLint: 344 µL/min/mg
[6]; [25]
  half-life: 20 min
[14]
  Ames fluctuation test TA100 +S9: neg/neg
  Ames fluctuation test TA100 –S9: neg/neg
[15]; PBS, pH 7.4
  solubility at 24 h: > 200 µM
[15]; simulated gastric fluid
  solubility at 24 h: > 200 µM
[15]; simulated intestinal fluid
  solubility at 24 h: > 200 µM
[16]
  Ames fluctuation test TA1535 +S9: neg/neg
  Ames fluctuation test TA1535 –S9: neg/neg
[17]
  logD at 1 h, 100 µM: 1.74
Caco-2
  Caco-2 A-B: 6.6 10^–6 cm/s
Caco-2 permeability
  efflux ratio: 1.9
[18]
  Ames fluctuation test TA1537 +S9: neg/neg
  Ames fluctuation test TA1537 –S9: neg/neg
[10]; hepatocytes
  hepatocyte CLint: < 8 µL/min/1e6 cells
[10]; [26]
  half-life: > 120 min
[19]
  Ames fluctuation test TA98 +S9: neg/neg
  Ames fluctuation test TA98 –S9: neg/neg
[11]; hepatocytes
  hepatocyte CLint: 12 µL/min/1e6 cells
[11]; [27]
  half-life: 85 min
Cyp D [3]
  Kd: 580 ± 100 nM
[20]
  Ames result in all strains tested: negative
Cyp B [4]
  Kd: 35 ± 6 nM

## CSc1ccccc1[C@H]1CCCN1C(=O)CNC(=O)N(Cc1cnc(N)nc1)Cc1ncc(C)s1 [Compound 12, 1-[(2-Aminopyrimidin-5-yl)methyl]-1-[(5-methylthiazol-2-yl)methyl]-3-[2-oxo-2-[(2R)-2-(2-methylsulfanylphenyl)pyrrolidin-1-yl]ethyl]urea]
Cyp A [1]
  Kd: 7300 ± 1000 nM
[5]
  microsomal CLint: 449 µL/min/mg
[5]; [24]
  half-life: 15 min
[6]
  microsomal CLint: 604 µL/min/mg
[6]; [25]
  half-life: 11 min
[14]
  Ames fluctuation test TA100 +S9: neg/neg
  Ames fluctuation test TA100 –S9: neg/neg
[15]; PBS, pH 7.4
  solubility at 24 h: > 200 µM
[15]; simulated gastric fluid
  solubility at 24 h: > 200 µM
[15]; simulated intestinal fluid
  solubility at 24 h: > 200 µM
[16]
  Ames fluctuation test TA1535 +S9: neg/neg
  Ames fluctuation test TA1535 –S9: neg/neg
[17]
  logD at 1 h, 100 µM: 1.27
Caco-2
  Caco-2 A-B: 0.8 10^–6 cm/s
Caco-2 permeability
  efflux ratio: 16
[18]
  Ames fluctuation test TA1537 +S9: neg/neg
  Ames fluctuation test TA1537 –S9: neg/neg
[10]; hepatocytes
  hepatocyte CLint: 12 µL/min/1e6 cells
[10]; [26]
  half-life: 84 min
[19]
  Ames fluctuation test TA98 +S9: neg/neg
  Ames fluctuation test TA98 –S9: neg/neg
[11]; hepatocytes
  hepatocyte CLint: 11 µL/min/1e6 cells
[11]; [27]
  half-life: 94 min
Cyp B [13]
  selectivity for Cyp B over Cyp A: 80 fold
Cyp D [3]
  Kd: 1500 ± 500 nM
iPSC-derived hepatocytes
  effect on hepatocyte overall lipid levels and lipid droplet size (in words): lack of potency
iPSC-derived hepatocytes; Hepatocyte, 48 h, read-out: EC50 MASH assay
  EC50: > 10000 nM
[20]
  Ames result in all strains tested: negative
Cyp B [4]; [23]
  Kd: 88 ± 20 nM

## CSc1ccccc1[C@H]1CCCN1C(=O)CN1C(=O)CN(Cc2cc(F)c(N)c(F)c2)C1=O [Compound 15, 1-[(4-Amino-3,5-difluoro-phenyl)methyl]-3-[2-oxo-2-[(2R)-2-(2-methylsulfanylphenyl)pyrrolidine-1-yl]ethyl]imidazolidine-2,4-dione]
Cyp A [7]
  Kd: 6700 ± 2600 nM
Cyp D [3]
  Kd: 6300 ± 1600 nM
Cyp B [4]
  Kd: 3800 ± 1300 nM

## CC(C)c1cc(Oc2c(Cl)cc(-n3nc(C#N)c(=O)[nH]c3=O)cc2Cl)n[nH]c1=O [Resmetirom, reference compound]
[21]
  patients with improved liver pathology: 25–30%
iPSC-derived hepatocytes; 95% CI [lower limit, upper limit], listed as Res, read-out: EC50 steatosis
  EC50: 261 nM
iPSC-derived hepatocytes; Hepatocyte, 48 h, 95% CI [lower limit, upper limit], read-out: EC50 steatosis
  EC50: ~300 nM
